Converted amounts (≈) assume the structure as drawn. The source made the active and inactive calls. No cut-off for these calls is given here.
What was measured:
Format in all cases: functional
Cryptococcus neoformans = test: Antimicrobial activity against Cryptococcus neoformans assessed as growth inhibition after 72-96 hr by two-fold serial dilution method
Aspergillus niger = test: Antimicrobial activity against Aspergillus niger assessed as growth inhibition after 72-96 hr by two-fold serial dilution method
Aspergillus flavus = test: Antimicrobial activity against Aspergillus flavus assessed as growth inhibition after 72-96 hr by two-fold serial dilution method
Fusarium oxysporum = test: Antimicrobial activity against Fusarium oxysporum assessed as growth inhibition after 72-96 hr by two-fold serial dilution method
Staphylococcus aureus = test: Antimicrobial activity against Staphylococcus aureus MTCC 96 assessed as growth inhibition after 24 hr by two-fold serial dilution method
Pseudomonas aeruginosa = test: Antimicrobial activity against Pseudomonas aeruginosa MTCC 741 assessed as growth inhibition after 24 hr by two-fold serial dilution method; settings: MTCC 741, 24 h
Bacillus subtilis = test: Antimicrobial activity against Bacillus subtilis MTCC 121 assessed as growth inhibition after 24 hr by two-fold serial dilution method; settings: MTCC 121, 24 h
Escherichia coli = test: Antimicrobial activity against Escherichia coli MTCC 443 assessed as growth inhibition after 24 hr by two-fold serial dilution method; settings: MTCC 443, 24 h
Klebsiella pneumoniae = test: Antimicrobial activity against Klebsiella pneumoniae MTCC 2272 assessed as growth inhibition after 24 hr by two-fold serial dilution method; settings: MTCC 2272, 24 h
Candida albicans = test: Antimicrobial activity against Candida albicans assessed as growth inhibition by two-fold serial dilution method

Row | Compound | MIC (Cryptococcus neoformans) | MIC (Aspergillus niger) [µg/mL] | MIC (Aspergillus flavus) [µg/mL] | MIC (Fusarium oxysporum) | MIC (Staphylococcus aureus) | MIC (Pseudomonas aeruginosa) [µg/mL] | MIC (Bacillus subtilis) [µg/mL] | MIC (Escherichia coli) [µg/mL] | MIC (Klebsiella pneumoniae) [µg/mL] | MIC (Candida albicans) [µg/mL] | MIC (Staphylococcus aureus; MTCC 96, 24 h) [µg/mL]
1 | CC1/C(=N/Nc2nc3ccccc3s2)CC(c2ccc(Cl)cc2)NC1c1ccc(Cl)cc1 (stereo not drawn) | 200 µg/mL (≈ 415 µM) | 100 (≈ 208 µM) | 50 (≈ 104 µM) | 200 µg/mL (≈ 415 µM) | inactive | 100 (≈ 208 µM) | 50 (≈ 104 µM) | 25 (≈ 51.9 µM) | 50 (≈ 104 µM) |  | 
2 | CC1/C(=N/Nc2nc3ccccc3s2)CC(c2ccc(Br)cc2)NC1c1ccc(Br)cc1 (stereo not drawn) | 100 µg/mL (≈ 175 µM) | 200 (≈ 351 µM) | 200 (≈ 351 µM) | 50 µg/mL (≈ 87.7 µM) | inactive | 200 (≈ 351 µM) | 200 (≈ 351 µM) | 200 (≈ 351 µM) | 100 (≈ 175 µM) | 200 (≈ 351 µM) | 
3 | CC1/C(=N/Nc2nc3ccccc3s2)CC(c2ccccc2Cl)NC1c1ccccc1Cl (stereo not drawn) | 100 µg/mL (≈ 208 µM) | 50 (≈ 104 µM) | 200 (≈ 415 µM) | 100 µg/mL (≈ 208 µM) | inactive | 100 (≈ 208 µM) | 100 (≈ 208 µM) | 200 (≈ 415 µM) | 100 (≈ 208 µM) | 200 (≈ 415 µM) | 
4 | CC1/C(=N/Nc2nc3ccccc3s2)CC(c2ccccc2)NC1c1ccccc1 (stereo not drawn) | 200 µg/mL (≈ 485 µM) | 100 (≈ 242 µM) |  | 200 µg/mL (≈ 485 µM) |  | 200 (≈ 485 µM) | 100 (≈ 242 µM) | 25 (≈ 60.6 µM) | 100 (≈ 242 µM) | 100 (≈ 242 µM) | 200 (≈ 485 µM)
5 | COc1ccc(C2C/C(=N\Nc3nc4ccccc4s3)C(C)C(c3ccc(OC)cc3)N2)cc1 (stereo not drawn) | inactive | 200 (≈ 423 µM) | 100 (≈ 212 µM) | inactive |  |  | 200 (≈ 423 µM) | 100 (≈ 212 µM) | 50 (≈ 106 µM) | 100 (≈ 212 µM) | 100 (≈ 212 µM)
6 | c1ccc(C2CC(=NNc3nc4ccccc4s3)CC(c3ccccc3)N2)cc1 (stereo not drawn) |  | 200 (≈ 502 µM) | 200 (≈ 502 µM) | 200 µg/mL (≈ 502 µM) | inactive | 200 (≈ 502 µM) | 100 (≈ 251 µM) | 200 (≈ 502 µM) | 200 (≈ 502 µM) | 100 (≈ 251 µM) | 
7 | CC1/C(=N/Nc2nc3ccccc3s2)CC(c2ccc(F)cc2)NC1c1ccc(F)cc1 (stereo not drawn) | 200 µg/mL (≈ 446 µM) | 100 (≈ 223 µM) | 100 (≈ 223 µM) | 100 µg/mL (≈ 223 µM) | inactive | 200 (≈ 446 µM) | 100 (≈ 223 µM) |  | 25 (≈ 55.7 µM) | 100 (≈ 223 µM) | 
8 | CCC1/C(=N/Nc2nc3ccccc3s2)CC(c2ccccc2)NC1c1ccccc1 (stereo not drawn) | 200 µg/mL (≈ 469 µM) |  | 100 (≈ 234 µM) | 100 µg/mL (≈ 234 µM) | inactive | 100 (≈ 234 µM) | 200 (≈ 469 µM) |  | 50 (≈ 117 µM) | 200 (≈ 469 µM) | 
9 | C[C@@H]1[C@H](O)[C@@H](C)/C=C/C=C/C=C/C=C/C=C/C=C/C=C/[C@H](O[C@@H]2O[C@H](C)[C@@H](O)[C@H](N)[C@@H]2O)C[C@@H]2O[C@](O)(C[C@@H](O)C[C@@H](O)[C@H](O)CC[C@@H](O)C[C@@H](O)CC(=O)O[C@H]1C)C[C@H](O)[C@H]2C(=O)O [AMPHOTERICIN B] | 25 µg/mL (≈ 27.1 µM) | 50 (≈ 54.1 µM) | 50 (≈ 54.1 µM) | 25 µg/mL (≈ 27.1 µM) |  |  |  |  |  | 25 (≈ 27.1 µM) | 
10 | CN[C@@H]1[C@H](O[C@H]2[C@H](O[C@H]3[C@H](O)[C@@H](O)[C@H](N=C(N)N)[C@@H](O)[C@@H]3N=C(N)N)O[C@@H](C)[C@]2(O)C=O)O[C@@H](CO)[C@H](O)[C@H]1O [STREPTOMYCIN] |  |  |  |  |  | 50 (≈ 86 µM) | 12.5 (≈ 21.5 µM) | 50 (≈ 86 µM) | 20 (≈ 34.4 µM) |  | 50 (≈ 86 µM)
